{
  "source": "patent US20240115654A1",
  "about": "“INTRAVENOUS ADMINISTRATION OF ENGINEERED ANTIMICROBIAL AMPHIPHILIC PEPTIDES” (priority 2021, published 2024)",
  "details": "1.0 mg/kg, 30 min IV infusion, individual monkeys",
  "description": "Animals will be obtained from the Test Facility's colony of adult male cynomolgus monkeys (Macaca fascicularis) of Chinese origin. Animals will be weighed prior to dosing.\nAnimals will be fasted a minimum of 2 hours prior to procedures requiring the administration of ketamine anesthesia. The diet will also be supplemented with other nutrients by feeding items such as raisins or fresh fruits that are presented to the animal as part of an environmental enrichment program. Offering items known to cause diarrhea will be avoided.\nIntravenous administration will be via 30 minute infusion into a temporary percutaneous catheter placed into a saphenous vein. […]\nThe peptide will be purified from plasma samples from each macaque using a cation exchange-based solid-phase extraction process. Prior to extraction, a known concentration of a mass-adjusted internal standard (IS) will be added to assess recovery and allow for quantitation. […] Compound plasma concentrations will be determined by comparing to and compensating with co-purified IS peak intensity and validated calibrated standard curves.\nToxicokinetic parameters will be calculated using non-compartmental methods as implemented in the Phoenix® WinNonlin® ver. […] Values below the lower limit of quantitation (BLQ) will be assigned a value of zero for the toxicokinetic calculations. […]",
  "note": "Several values for one entry are separate records, joined by “and”; a condition that tells them apart may be missing. Identical values can stand only once. Peptide text beside a SMILES is read from it.",
  "data": [
    {"smiles": "C[C@@H](O)[C@H](NC(=O)[C@H](Cc1c[nH]cn1)NC(=O)[C@@H](NC(=O)[C@H](CCCCN)NC(=O)[C@H](CCCCN)NC(=O)[C@@H](NC(=O)[C@H](CCCCN)NC(=O)[C@@H](NC(=O)[C@H](Cc1c[nH]cn1)NC(=O)[C@@H](NC(=O)[C@H](CCCCN)NC(=O)[C@H](CCCCN)NC(=O)[C@@H](NC(=O)[C@H](CCCCN)NC(=O)[C@@H](NC(=O)[C@H](Cc1c[nH]cn1)NC(=O)[C@@H](NC(=O)[C@H](CCCCN)NC(=O)[C@@H](N)CCCCN)[C@@H](C)O)[C@@H](C)O)[C@@H](C)O)[C@@H](C)O)[C@@H](C)O)[C@@H](C)O)[C@@H](C)O)C(=O)N[C@@H](CCCCN)C(=O)O", "note": "[SEQ ID NO: 13] (H-KKTHTKTKKTHTKTKKTHTK-OH)", "values": [
      {"measurement": "Dose Normalized Cmax", "result": "5000 and 7000 and 6000"}
    ]}
  ]
}
